The record followed here is patent US12595248B2, “PRMT5 inhibitors” (Merck Sharp & Dohme LLC, priority 2019, dated 2026).

Structures are written as SMILES. pEC50: −log10 of the molar value. Where two headings read alike, the source gives them in different places.

The target of assay [1] is T1, PRMT5-MEP50 enzyme complex (Homo sapiens, UniProt O14744).
T1 construct: Full-length (FL)-PRMT5-MEP50 enzyme complex (recombinant proteins from baculovirus-transfected Sf21 cells: FL-PRMT5; MW=73837 kDa and FL-MEP50; MW=38614); made in house; host or cells: baculovirus-transfected Sf21 cells
T1 sequence (O14744 whole entry): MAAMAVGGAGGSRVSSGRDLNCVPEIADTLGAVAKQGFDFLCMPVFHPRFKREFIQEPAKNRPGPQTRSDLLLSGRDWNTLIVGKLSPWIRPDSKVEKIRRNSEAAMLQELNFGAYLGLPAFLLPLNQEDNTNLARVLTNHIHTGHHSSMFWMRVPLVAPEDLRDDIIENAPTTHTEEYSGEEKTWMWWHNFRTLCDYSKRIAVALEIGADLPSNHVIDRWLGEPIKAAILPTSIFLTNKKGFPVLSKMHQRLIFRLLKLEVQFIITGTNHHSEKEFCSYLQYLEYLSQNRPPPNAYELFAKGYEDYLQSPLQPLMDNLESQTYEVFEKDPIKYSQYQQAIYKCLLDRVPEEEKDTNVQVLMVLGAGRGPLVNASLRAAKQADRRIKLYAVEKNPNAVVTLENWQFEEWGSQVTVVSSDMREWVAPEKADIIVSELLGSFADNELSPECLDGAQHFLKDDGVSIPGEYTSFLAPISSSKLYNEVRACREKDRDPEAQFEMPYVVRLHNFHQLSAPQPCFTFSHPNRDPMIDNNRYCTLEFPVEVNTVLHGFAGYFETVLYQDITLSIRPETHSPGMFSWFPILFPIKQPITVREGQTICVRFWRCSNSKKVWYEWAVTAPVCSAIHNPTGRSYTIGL
T1 sequence (Q9BQA1 whole entry partner): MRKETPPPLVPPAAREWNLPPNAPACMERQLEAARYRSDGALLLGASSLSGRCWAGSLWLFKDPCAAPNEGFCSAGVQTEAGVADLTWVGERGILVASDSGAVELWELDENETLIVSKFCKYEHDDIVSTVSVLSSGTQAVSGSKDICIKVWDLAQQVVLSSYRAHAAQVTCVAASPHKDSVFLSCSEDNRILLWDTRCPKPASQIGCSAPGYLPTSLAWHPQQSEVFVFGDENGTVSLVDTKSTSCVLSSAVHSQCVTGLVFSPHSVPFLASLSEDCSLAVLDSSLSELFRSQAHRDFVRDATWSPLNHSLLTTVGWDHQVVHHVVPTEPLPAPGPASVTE
Briefly: PRMT5-MEP50 Enzyme Methylation Assay (Version B). In kind it is biochemical. The method, then:
PRMT5-MEP50 Enzyme Methylation Assay (Version B)
PRMT5-MEP50 biochemical assay is a direct measurement of the methylation activity of the enzyme complex on a short peptide substrate derived from the N-terminus of H4 histone. Methylation experiment was performed with recombinant PRMT5-MEP50 protein complex. The assessment of inhibitory effect (EC50) of small molecules was measured by the effectiveness of the compounds to inhibit this reaction.
In this assay, the potency (EC50) of each compound was determined from a twenty-point (1:2 serial dilution; top compound concentration of 100000 nM) titration curve using the following outlined procedure. To each well of a white ProxiPlus 384 well-plate, 100 nL of compound (1% DMSO in final assay volume of 10 μL) was dispensed, followed by the addition of 8 μL of 1× assay buffer (50 mM Bicine pH 8.0, 1 mM DTT, 0.004% Tween20, 0.01% BSA) containing 0.625 nM of Full-length (FL)-PRMT5-MEP50 enzyme complex (recombinant proteins from baculovirus-transfected Sf21 cells: FL-PRMT5; MW=[…] and FL-MEP50; MW=38614). Plates were sealed and placed in a 37° C. humidified chamber for 30 minutes pre-incubation with compounds. Subsequently, each reaction was initiated by the addition of 2 μL 1× assay buffer containing 375 nM biotinylated H4R3 (MeI) peptide, and 75 μM S-(5′-Adenosyl)-L-Methionine Chloride (SAM). The final reaction in each well of 10 μL consists of 0.5 nM PRMT5-MEP50, 75 nM biotinylated-peptide, and 15 μM SAM. Methylation reactions were allowed to proceed for 150 minutes in a sealed plate at 37° C. Reactions were immediately quenched by the addition of 1 μL of 10% formic acid. Plates were then frozen and shipped to SAMDI™ Tech Inc. to determine the percent conversion from […]. Dose-response curves were generated by plotting percent effect (% product conversion; Y-axis) vs. Log 10 compound concentrations (X-axis). EC50 values were determined by non-linear regression according to models for either sigmoidal (4 parameters) or biphasic (7 parameters) dose-response curves.

Another assay concerns the target T2, PRMT5 (Homo sapiens, UniProt O14744).
T2 construct: seeded with 4000 MCF-7 cells in 30 μl media; endogenous in cells; host or cells: MCF-7 cells
The experiment in a line: PRMT5 Cell Target Engagement (TE) Assay. In kind it is cell-based. Conditions: MCF-7 cells, treated for 3 days, symmetric dimethylation of arginine (SDMA) by high content imaging. An excerpt:
PRMT5 Cell Target Engagement (TE) Assay
The PRMT5 TE assay is a biomarker assay for identifying compounds that inhibit symmetric dimethylation of arginine (SDMA) of PRMT5 substrates. The following substrates have been reported for PRMT5: histone H2A and H4 R3, Histone H3 R2, Histone H3 R8, spliceosome Sm proteins, ribosomal protein RPS10, p53, FEN1, nucleoplasmin, nucleolin, EGFR and EBNA. The assay focuses on detecting symmetrically dimethylated nuclear proteins using high content imaging technology. Detection of the expression of symmetrically dimethylated nuclear proteins is through a mixture of primary rabbit monoclonal antibodies to SDMA (CST 13222), which in turn recognized by an Alexafluor 488 dye-conjugated anti-rabbit IgG secondary antibody. The IN Cell Analyzer 2200 or Opera-Phenix measures nuclear Alexafluor 488 fluorescent dye intensity that is directly related to the level of expression of symmetrically dimethylated nuclear proteins at the single cell level. Nuclear AF488 dye intensities are compared to the mean value for DMSO treated cells (MIN) to report percent of inhibition for each compound-treated well.
In this assay, the cell potency (EC50) of each compound was determined from a ten point (1:3 serial dilution; top compound concentration of 10000 nM) titration curve using the following outlined procedure. Each well of a BD falcon collagen coated black/clear bottom 384-well plate was seeded with 4000 MCF-7 cells in 30 μl media and allowed to attach for 5 h. Media is ATCC-formulated Eagle's Minimum Essential Medium, Catalog No. 30-2003. To make the complete growth medium, the following components were added to the base medium: 0.01 mg/mL human recombinant insulin; fetal bovine serum to a final concentration of 10%. Additional 30 μl of media containing 2× compounds were added to each well. Cells were treated for 3 days in 37° C. CO2 incubator. On day 3, cells were fixed with Cytofix, permeabilized with 0.4% Triton-X-100/Cytofix, and washed with D-PBS without Ca/Mg. Cells were blocked with Licor Odessey blocking reagent for 1 h at room temperature, followed by incubation with anti-SDMA (1:1000) antibody at 4° C. overnight. 1° antibody was removed, followed by three washings with DPBS without Ca/Mg and 0.05% Tween20. Hoechst (5 μg/mL), Cell Mask deep stain (1:2000) and Alexa488-conjugated goat anti-rabbit IgG (2 μg/mL) was added for 1 h at room temperature. A final washing step (three washes) was performed before sealing plate for imaging on In Cell Analyzer 2200 or Opera-Phenix. Images from analyzer were uploaded to Columbus (at WP or BOS) for image analysis. IC50 values were determined by 4 parameters robust fit of percent fluorescence units vs. (Log10) compound concentrations.

[2] abbreviates: first of two EC50s: 7 parameters biphasic model, read-out: Enzyme Methylation Assay Version B (EC50_1).
The mark [3] stands for this setting: second of two EC50s: 7 parameters biphasic model, read-out: Enzyme Methylation Assay Version B (EC50_2).
[4] abbreviates: only one EC50 shown: 4 parameters single site sigmoidal model, 30 min pre-incubation, read-out: Enzyme Methylation Assay Version B (EC50).

T2 sequence (O14744 whole entry): as the sequence (O14744 whole entry) above
T2 sequence (Q9BQA1 whole entry partner): as the sequence (Q9BQA1 whole entry partner) above

With `CC(=O)N1CCC(Nc2nccc(C(=O)N3CC[C@H](N4CCc5ccccc5C4)[C@@H](O)C3)c2F)C(F)(F)C1` (single isomer, unassigned) [Example 14], the pEC50 is ~7.70 in assay [1] (setting [2]), 4.76 in assay [1] (setting [3]) and 6.56 at PRMT5.

As to `CCC1Oc2ccc(C(=O)N3CC[C@@H](N4CCc5ccccc5C4)[C@H](O)C3)cc2NC1=O` (single isomer, unassigned) [Example 12], the pEC50 in assay [1] (setting [2]) is 6.97; in assay [1] (setting [3]) it was 4.34; on PRMT5, 5.22.

Take `O=C(c1ccc(OCC(F)(F)F)nc1)N1CCC(N2Cc3ccccc3C(F)(F)C2)C(O)C1` (single isomer, unassigned) [Example 29, (-4-(4,4-difluoro-3,4-dihydroisoquinolin-2(1H)-yl)-3-hydroxypiperidin-1-yl)(6-(2,2,2-trifluoroethoxy)pyridin-3-yl)methanone]: the pEC50 in assay [1] (setting [4]) is 5.87; on PRMT5, < 5.00.

As for `CC(=O)N1CCC(Nc2cc(C(=O)N3CC[C@H](N4CCc5ccccc5C4)[C@@H](O)C3)c(F)cn2)C(F)(F)C1` (single isomer, unassigned) [Example 87], the pEC50 in assay [1] (setting [2]) is 8.07; in assay [1] (setting [3]), 5.14; on PRMT5, 7.23.

Take `O=C(c1ccc(C(=O)N2C3CCC2COC3)cc1)N1CC[C@H](N2CCc3cc(F)ccc3C2)[C@@H](O)C1` [Example 39, (4-(3-oxa-8-azabicyclo[3.2.1]octane-8-carbonyl)phenyl)((3S,4S)-4-(6-fluoro-3,4-dihydroisoquinolin-2(1H)-yl)-3-hydroxypiperidin-1-yl)methanone]: the pEC50 is 4.51 in assay [1] (setting [2]), < 4.00 in assay [1] (setting [3]) and < 5.00 at PRMT5.

Regarding `CC(=O)N1CCC(Nc2nccc(C(=O)N3CC[C@@H](N4CCc5ccccc5C4)[C@H](O)C3)c2F)C(F)(F)C1` (single isomer, unassigned) [Example 16], the pEC50 in assay [1] (setting [2]) is 6.80; in assay [1] (setting [3]), 4.08; on PRMT5 it was 5.24.

Turning to `O=C(c1ccc(C(=O)N2C3CCC2COC3)cc1)N1CC[C@H](N2CCc3ccc(F)cc3C2)[C@@H](O)C1` [Example 41, (4-(3-oxa-8-azabicyclo[3.2.1]octane-8-carbonyl)phenyl)((3S,4S)-4-(7-fluoro-3,4-dihydroisoquinolin-2(1H)-yl)-3-hydroxypiperidin-1-yl)methanone], the pEC50 in assay [1] (setting [2]) is 7.72; in assay [1] (setting [3]) it was 5.09; at PRMT5, 5.83.

Regarding `O=C(c1ccc(OCC(F)(F)F)nc1)N1CC[C@H](N2CCc3ccccc3C2)[C@@H](O)C1` [Example 43, ((3S,4S)-4-(3,4-dihydroisoquinolin-2(1H)-yl)-3-hydroxypiperidin-1-yl)(6-(2,2,2-trifluoroethoxy)pyridin-3-yl)methanone], the values for the pEC50 (in assay [1] (setting [2]); in assay [1] (setting [3]); on PRMT5) were 8.43, 5.49 and 6.36, respectively.

Consider `CC1(C)CC(=O)Nc2cc(C(=O)N3CC[C@@H](N4CCc5ccccc5C4)[C@H](O)C3)ccc21` [Example 95, 7-((3R,4R)-4-(3,4-dihydroisoquinolin-2(1H)-yl)-3-hydroxypiperidine-1-carbonyl)-4,4-dimethyl-3,4-dihydroquinolin-2(1H)-one], for which the values for the pEC50 (in assay [1] (setting [2]); in assay [1] (setting [3]); at PRMT5) were ~7.21, 4.40 and 5.57, respectively.

In the case of `O=C(c1ccc(C(=O)N2C3CCC2COC3)cc1)N1CC[C@H](N2CCc3c(F)cccc3C2)[C@@H](O)C1` [Example 37, (4-(3-oxa-8-azabicyclo[3.2.1]octane-8-carbonyl)phenyl)((3S,4S)-4-(5-fluoro-3,4-dihydroisoquinolin-2(1H)-yl)-3-hydroxypiperidin-1-yl)methanone], the pEC50 is ~7.06 in assay [1] (setting [2]), 4.54 in assay [1] (setting [3]) and 5.73 on PRMT5.

Regarding `CC1(C)CC(=O)Nc2cc(C(=O)N3CC[C@H](N4CCc5ccccc5C4)[C@@H](O)C3)ccc21` [Example 96, 7-((3S,4S)-4-(3,4-dihydroisoquinolin-2(1H)-yl)-3-hydroxypiperidine-1-carbonyl)-4,4-dimethyl-3,4-dihydroquinolin-2(1H)-one], the pEC50 is ~7.85 in assay [1] (setting [2]), 4.82 in assay [1] (setting [3]) and 6.48 on PRMT5.

Turning to `Cc1ccc2c(c1)CN(C1CCN(C(=O)c3ccc(OCC(F)(F)F)nc3)CC1O)CC2` (single isomer, unassigned) [Example 48, ((3S,4S or 3R,4R)-3-hydroxy-4-(7-methyl-3,4-dihydroisoquinolin-2(1H)-yl)piperidin-1-yl)(6-(2,2,2-trifluoroethoxy)pyridin-3-yl)methanone], the pEC50 was 4.75 in assay [1] (setting [4]) and < 5.00 on PRMT5.

As for `CS(=O)(=O)N1CCC(Nc2cc(C(=O)N3CC[C@H](N4CCc5ccccc5C4)[C@@H](O)C3)c(F)cn2)CC1` [Example 105, ((3S,4S)-4-(3,4-dihydroisoquinolin-2(1H)-yl)-3-hydroxypiperidin-1-yl)(5-fluoro-2-((1-(methylsulfonyl)piperidin-4-yl)amino)pyridin-4-yl)methanone], the pEC50 was 8.49 in assay [1] (setting [2]), 5.99 in assay [1] (setting [3]) and 7.82 on PRMT5.

For `O=C(c1cn2c(n1)CCC(C(F)(F)F)C2)N1CC[C@H](N2CCc3ccccc3C2)[C@@H](O)C1` (single isomer, unassigned) [Example 83], the pEC50 was 7.92 in assay [1] (setting [2]), 5.02 in assay [1] (setting [3]) and 6.44 on PRMT5.

With `CCC1Oc2ccc(C(=O)N3CC[C@H](N4CCc5ccccc5C4)[C@@H](O)C3)cc2NC1=O` (single isomer, unassigned) [Example 10], the pEC50 in assay [1] (setting [2]) is 8.19; in assay [1] (setting [3]) it was 5.33; on PRMT5, 6.92.

For `O=C(c1ccc(C(=O)N2C3CCC2COC3)cc1)N1CC[C@@H](N2CCc3ccccc3C2)[C@H](O)C1` [Example 36, (4-(3-oxa-8-azabicyclo[3.2.1]octane-8-carbonyl)phenyl)((3R,4R)-4-(3,4-dihydroisoquinolin-2(1H)-yl)-3-hydroxypiperidin-1-yl)methanone], the pEC50 in assay [1] (setting [2]) is ~6.26; in assay [1] (setting [3]), < 4.00; on PRMT5, < 5.00.

Turning to `O=C(c1ccc(C(=O)N2C3CCC2COC3)cc1)N1CC[C@@H](N2CCc3ccc(F)cc3C2)[C@H](O)C1` [Example 42], the pEC50 is 4.91 in assay [1] (setting [2]), < 4.00 in assay [1] (setting [3]) and < 5.00 at PRMT5.
